Measurements reported in US9567623B2, “Coelenterazine analogs” (JNC CORPORATION, priority 2013, dated 2017).

Key:
[1] = target: T1, Catalytic 19 kDa domain of Oplophorus luciferase (Oplophorus gracilirostris, UniProt Q9GV45); assay: Substrate specificity of various luciferases: catalytic 19 kDa domain of Oplophorus luciferase; type: biochemical, Oplophorus grachlorostris; conditions: for Maximum Luminescence Intensity (Imax, %) / Relative Amount of Integrated Luminescence Intensity (1 min, %): relative to coelenterazine = 100
T1 construct: The catalytic 19 kDa domain of Oplophorus luciferase was produced by the method described in; made in house
Description: (§1) The preparation of various luciferases and the determination of their luminescence activities were carried out in accordance with the methods as previously reported. The catalytic 19 kDa domain of Oplophorus luciferase was produced by the method described in Inouye S. & Sasaki S. (2007) Protein Express. Purif. 56, 261-268, Gaussia luciferase by the method described in Inouye S & Sahara Y. (2008) Biochem. Biophys. Res. Commun. 368, 600-605, Renilla luciferase and Renilla luciferase 547 by the method described in Inouye S. et al. (2013) Protein Express. Purif. 88, 150-156, and aequorin by the method described in Inouye S et al. (2010) Anal. Biochem. 407, 247-252, respectively, and used.

Gaussia luciferase = assay: Substrate specificity of various luciferases: Gaussia luciferase; type: biochemical; conditions: relative to coelenterazine = 100
Description: as §1

Renilla luciferase = target: T2, Renilla luciferase (Renilla reniformis, UniProt P27652); assay: Substrate specificity of various luciferases: Renilla luciferase; type: biochemical; conditions: relative to coelenterazine = 100
T2 construct: made in house
T2 sequence (P27652 1-311): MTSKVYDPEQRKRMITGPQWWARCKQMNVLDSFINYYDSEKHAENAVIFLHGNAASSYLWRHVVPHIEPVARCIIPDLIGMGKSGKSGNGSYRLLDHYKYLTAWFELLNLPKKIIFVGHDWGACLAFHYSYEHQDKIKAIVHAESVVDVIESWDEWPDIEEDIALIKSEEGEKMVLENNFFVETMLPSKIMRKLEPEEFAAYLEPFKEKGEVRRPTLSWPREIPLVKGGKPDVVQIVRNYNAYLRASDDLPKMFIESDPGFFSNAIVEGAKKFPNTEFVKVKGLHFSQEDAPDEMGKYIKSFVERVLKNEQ
Description: as §1

Aequorin = target: T3, Aequorin (Aequorea victoria, UniProt P07164); type: biochemical, jellyfish; conditions: relative to coelenterazine = 100
T3 construct: made in house
Description: as §1

Renilla luciferase 547 = assay: Substrate specificity of various luciferases: Renilla luciferase 547; type: biochemical; conditions: relative to coelenterazine = 100
Description: as §1

[2] = target: T4, nanoKAZ (mutated catalytic 19 kDa domain of Oplophorus luciferase) (Oplophorus gracilirostris, UniProt Q9GV45, A31E/A60N/A81I/F95D/I117V/K70R/L54V/L99Q/M102K/N193R/P142E/Q151K/Q38R/Q45L/V71I/Y165I); assay: Luminescence activity of secreted codon-optimized nanoKAZ domain protein with coelenterazine analogs as substrates; type: biochemical; conditions: for Relative maximum luminescence intensity (Imax) / Relative amount of integrated luminescence intensity (1 min.): relative to coelenterazine = 1.0; for Relative maximum luminescence intensity (Imax): 1 μg substrate, 50 mM Tris-HCl (pH 7.6)-10 mM EDTA, 60 seconds; for Relative amount of integrated luminescence intensity (1 min.): integrated for 60 seconds; for Luminescence pattern (decay): FIG. 3, recombinant nanoKAZ
T4 construct: secretory signal peptide of Gaussia luciferase (GLsp) (N, cleaved yes); made in house; host or cells: CHO-K1 transiently transfected with pcDNA3-GLsp-nanoKAZ; unpurified culture medium used as the enzyme solution
Description: The Chinese hamster ovary-derived cell line CHO-K1 was cultured in Ham's F-12 medium (manufactured by Wako Pure Chemical Industries, Ltd.) containing 10% (v/v) calf fetal serum (manufactured by Biowest Inc.), and cultured in DMEM (manufactured by Wako Pure Chemical Industries, Ltd.) containing 10% (v/v) calf fetal serum (manufactured by Biowest Inc.). The respective cells were seeded in a 6-well culture plate (n=2) with 1×10^5 cells/well/2 mL medium, and cultured in an incubator at 37° C. in 5% CO2, respectively. After 24 hours, the purified pcDNA3-GLsp-nanoKAZ plasmid was transfected into CHO-K1 cells using a FuGene HD Transfection Kit (manufactured by Promega Corp.), which was used in the subsequent experiment. Specifically, 1 μg of the pcDNA3-GLsp-nanoKAZ expression vector and 3 μL of FuGene HD were added to 100 μL of medium, which was allowed to stand at room temperature for 15 minutes. Then 100 μL of the DNA-FuGene complex solution was added to the cells in the 6 wells. After incubation for 48 hours, the culture medium was recovered and used as the secreted nanoKAZ enzyme solution for assay.
The enzyme solution, 5 μL, for assay obtained in EXAMPLE 4 (2) was added to 100 pt of 50 mM Tris-HCl (pH 7.6)-10 mM EDTA (Wako Pure Chemical Industries) containing 1 μg each of various coelenterazine analogs to initiate the luminescence reaction. The luminescence activity was determined by a luminometer (AB2200, manufactured by Atto Company) for 60 seconds and expressed by the maximum luminescence intensity (Imax) and the relative light units (du) of the lumimescence intensity integrated for 60 seconds.
The coelenterazine analogs used for substrate specificity analysis except for the analog described in EXAMPLE 1 were synthesized by the methods as described in the journals below, respectively. Specifically, bis-coelenterazine was synthesized by the method described in Nakamura et al. (1997) Tetrahedron Lett. 38: 6405-6406; Furimazine (Compound No. 3939 referred to in the journal) and C6d-coelenterazine (Compound No. 3840 referred to in the journal) by the method described in Hall et al. (2012) ACS Chem. Biol. […]; and the C2-coelenterazine analogs by the method described in Inouye et al (2010) Anal. Biochem. 407: 247-252. The enzyme solution of the culture medium in which nanoKAZ was secreted by the method as described in EXAMPLE 4 (2) was used for determining the luminescence activity with coelenterazine or its analogs. […] As a result, the luminescence substrates which can markedly improve the luminescence intensity and the amount of the integrated luminescence intensity to compare with furimazine are bis-coelenterazine and C6d-f-coelenterazine, showing a continuous luminescence without a decay of the luminescence intensity.

[3] = Stability of coelenterazine analogs in aqueous solution (HPLC); type: physicochemical; conditions: 30 mM Tris-HCl (pH 7.6)
Description: The stability of coelenterazine analogs in an aqueous solution was examined by dissolving 10 μg of coelenterazine analogs in 0.5 mL of 30 mM Tris-HCl (pH 7.6), allowing the solution to stand at 37° C. for 22 hours, and then the degradation of coelenterazine analogs was determined by HPLC analysis. The HPLC analysis was performed by the modified method as described in Inouye S. et al. (2013) Protein Express. Purif. 88, 150-156.

[4] = incubation time at 37° C. 0 hour
[5] = incubation time at 37° C. 22 hours

T1 sequence (Q9GV45 28-196): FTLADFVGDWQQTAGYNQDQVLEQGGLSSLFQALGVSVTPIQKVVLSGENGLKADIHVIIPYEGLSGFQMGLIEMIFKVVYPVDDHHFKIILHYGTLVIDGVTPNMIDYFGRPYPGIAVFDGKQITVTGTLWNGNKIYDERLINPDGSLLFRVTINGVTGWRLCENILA
T3 sequence (P07164 8-196): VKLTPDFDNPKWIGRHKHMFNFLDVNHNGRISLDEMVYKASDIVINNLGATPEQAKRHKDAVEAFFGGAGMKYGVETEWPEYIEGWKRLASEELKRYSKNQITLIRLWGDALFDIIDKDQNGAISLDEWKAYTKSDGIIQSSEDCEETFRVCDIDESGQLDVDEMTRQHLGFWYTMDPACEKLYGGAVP
T4 sequence (Q9GV45 other isoform, or with tags, fused parts or gaps with the stated changes): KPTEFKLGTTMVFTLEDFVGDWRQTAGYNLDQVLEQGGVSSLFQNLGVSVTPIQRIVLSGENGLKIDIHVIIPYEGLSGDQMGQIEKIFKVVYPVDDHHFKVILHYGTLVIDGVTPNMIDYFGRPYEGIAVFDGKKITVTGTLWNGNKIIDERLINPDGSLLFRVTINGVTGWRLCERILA

Molecule | Maximum Luminescence Intensity (Imax, %) [1] [%] | Relative Amount of Integrated Luminescence Intensity (1 min, %) [1] | Maximum Luminescence Intensity (Imax, %) (Gaussia luciferase) [%] | Relative Amount of Integrated Luminescence Intensity (1 min, %) (Gaussia luciferase) | Maximum Luminescence Intensity (Imax, %) (Renilla luciferase) [%] | Relative Amount of Integrated Luminescence Intensity (1 min, %) (Renilla luciferase) | Maximum Luminescence Intensity (Imax, %) (Aequorin) [%] | Relative Amount of Integrated Luminescence Intensity (1 min, %) (Aequorin) | Maximum Luminescence Intensity (Imax, %) (Renilla luciferase 547) [%] | Relative Amount of Integrated Luminescence Intensity (1 min, %) (Renilla luciferase 547) | Relative maximum luminescence intensity (Imax) [2] | Relative amount of integrated luminescence intensity (1 min.) [2] | Residual Ratio of Coelenterazine Analog (%) [3, 4] [%] | Residual Ratio of Coelenterazine Analog (%) [3, 5] [%] | Luminescence pattern (decay) [2] | Suitability as substrate ([1]; in words, from TABLE 2)
C6d-coelenterazine | 9.0 | (7.7) % | 0.8 | (0.8) % | 0.02 | (0.02) % | 0.03 | (0.03) % | 0.12 | (0.12) % | 0.8 | 0.7 | – | – | – | –
O=c1c(Cc2ccco2)nc2c(Cc3ccccc3)[nH]c(-c3ccccc3)cn1-2 [Furimazine] | 72.2 | (65.2) % | 0 | (0) % | 0.01 | (0.01) % | 0.02 | (0.02) % | 0.01 | (0.01) % | 5.5 | 5.7 | 100 | 3 | did not exhibit a rapid decay | –
Oc1ccc(-c2cn3c(O)c(Cc4ccccc4)nc3c(Cc3ccccc3)n2)cc1 [h-Coelenterazine] | 92.6 | (101) % | 8.2 | (12.1) % | 68.5 | (73.5) % | 84.0 | (68.0) % | 24.5 | (16.4) % | 17.0 | 10.1 | – | – | – | –
coelenterazine [Coelenterazine (CTZ)] | 100 | (100) % | 100 | (100) % | 100 | (100) % | 100 | (100) % | 100 | (100) % | 1.0 | 1.0 | 100 | 2 | – | –
O=c1c(Cc2ccc(F)cc2)nc2c(Cc3ccccc3)[nH]c(-c3ccc(O)cc3)cn1-2 [f-Coelenterazine] | 78.6 | (85.7) % | 5.0 | (10) % | 65.3 | (71.4) % | 42.3 | (59.0) % | 78.0 | (68.1) % | 19.5 | 11.1 | – | – | – | –
O=c1c(Cc2ccc(F)cc2)nc2c(Cc3ccccc3)[nH]c(-c3ccccc3)cn1-2 [C6d-f-Coelenterazine, C6d-f-coelenterazine] | 100 | (105) % | 0 | (0) % | 0.07 | (0.01) % | 0.12 | (0.19) % | 0.17 | (0.13) % | 10.1 | 10.1 | 100 | 49 | did not exhibit a rapid decay | good substrate
bis-coelenterazine | 108 | (102) % | 0 | (0) % | 0.04 | (0.03) % | 0.01 | (0.01) % | 0.07 | (0.08) % | 10.3 | 9.7 | 100 | 38 | did not exhibit a rapid decay | –
